For one series, the system named is HIF1-alpha. Nature of the series: Measurement of the stabilization of HIF1-alpha in HEKEA cells (beta-galactosidase complementation). The note with it: HEKEA_HIF1-alphaPLBL cells, 6 hours under normoxia, luminescence; molar concentration that produces 50% of the maximum response of this same compound. Type of series: cell-based, human. The source says: Furthermore, a subject of the invention is also a uniform test for the direct measurement by beta-galactosidase complementation of the amount of HIF1-alpha protein in the nucleus of cells, preferably HEK cells, after treating the said cells with one or more test compounds, which consists in: • (a) inoculating, preferably in 384-well plates, the said cells in a suitable culture medium, preferably 1% foetal calf serum (abbreviated as FCS); • (b) adding the test compound(s) at a suitable concentration in a suitable solvent to the cells previously inoculated in the said culture medium; preferably the test compounds are diluted in 0.1% FCS; • (c) incubating the said cells thus prepared in an indicator at about 37° C., advantageously for about 6 hours; • (d) lysing the cells with a lysis buffer containing a chemiluminescent substrate for beta-galactosidase; • (e) incubating in the absence of light, before reading and measuring the luminescence, which is a function of the beta-galactosidase activity.
The test is a cell test based on the principle of enzyme complementation, the enzyme used herein being beta-galactosidase. HEKEA cells are HEK cells stably expressing, and restricted in their nucleus, mutant beta-galactosidase (omega fragment, also known as EA) (line sold by DiscoverX). This construct makes it possible to obtain beta-galactosidase activity only when the protein comprising the Prolabel complementation fragment has migrated into the nucleus.
The protein of interest comprising the Prolabel fragment is in this case an HIF1-alpha or HIF1-alpha mutated at the two prolines 402 and 564 replaced with alanines, is C-terminal fused via molecular biology (DiscoverX vector sold by Clontech) with the small complementation peptide fragment (Prolabel or ED, about 4 kDa). The vector coding for the chimeric protein HIF1-alpha_Prolabel is then transfected into HEKEA cells to obtain stable clones (HEKEA_HIF1-alphaPLBL).
The amount of C-terminal Prolabel-“labelled” HIF1-alpha protein obtained after treating the cells to hypoxia or compounds that are potentially HIF activators is measured by adding to the cells a lysis buffer containing a chemiluminescent substrate for beta-galactosidase.
The measurement of the beta-galactosidase activity will be proportional to the amount of Prolabel and thus of HIF1-alpha that has migrated into the nucleus of the cells.
1.3.1 Experiment Plan • 1) Inoculation of the cells on D0 • 2) Adherence for 24 hours under normoxia • 3) Preparation and addition of the products (Biomek 2000 and FX) on D+1 • 4) Incubation under normoxia for 6 hours • 5) Reading of the plates (by luminescence)
The cells are inoculated with Multidrop in white, opaque-bottomed 384-well plates (Greiner ref 3704), in 30 μl of culture medium (1% FCS) a 10000 cells/well (cell plate).
The test products are prepared at 3×10^−2 M in 100% DMSO and then diluted to 3×10^−4 M in medium containing 0.1% FCS (10 μl in 990 μl of MEM). They are then deposited by hand into column 12 of a round-bottomed 96-well plate (200 μl of each compound) known as the dilution plate (dl). The complete DL plate of 3×10^−4 M to 10^−9 M is then prepared with Biomek 2000 (programme: range of 10 points in series). For the references and controls, 100 μl of DMEM containing 0.1% FCS are added to column 1, 100 μl of Deferoxamine 10^−3M to column 2, wells A B C D and 100 μl of Deferoxamine 5×10^−3 M to column 2, wells E F G H.
3.3 μL are taken from the DL plate by pipetting with a Biomek FX 96 and placed in horizontal duplicate (columns 1 to 24) in each 384-well cell plate (HEKEA_HIF1-alphaPLBL cell plate).
The cells are then placed for 6 hours in an incubator at 37° C. (ambient O2, 6% CO2).
The kit used is the Prolabel chemiluminescent kit (Ref 93-0001 DiscoverX). […]

The test system of the next series is VEGF. Nature of the series: Measurement of the secretion of VEGF by Hep3B hepatocytes (ELISA). The note with it: Homo sapiens, supernatant of Hep3B cells, 18 hours under normoxia, concentration that produces 50% of the maximum response of this same compound. Type of series: cell-based. The method, then: (§1) The test is an ELISA test for measuring VEGF and EPO in the supernatant of Hep3B cells treated under hypoxia or with deferoxamine as controls or with the potential HIF activators. The test was adapted to a 96-well plate, allowing greater compound screening capacity.
(§2) 2.3.1 Experiment Plan • 1) Inoculation of the cells on D0 • 2) Adherence for 6 hours under normoxia • 3) Preparation and addition of the products (Biomek 2000 and FX) • 4) Incubation under normoxia for 18 hours • 5) EPO and VEGF assay in the supernatant on D+1
(§3) The cells are subcultured into 100 μl of culture medium (10% FCS) in black, opaque-bottomed 96-well plates (reference Costar 3916) at 30000 cells/well, with Multidrop.
(§4) The test products are prepared at 10^−2M in 100% DMSO and then diluted to […] in medium containing 0.1% FCS (6 μl in 194 μl of MEM). 200 μl of each compound are deposited in column 12 of a 96-well plate. Dilution ranges from 3×10^−4M to 3×10^−8M are prepared with Biomek 2000 (programme: range of 9 points in series). 100 μl of MEM 0.1% FCS and Deferoxamine 5×10^−3M are added as controls to column 3 and, respectively, to wells A,B,C,D & wells E,F,G,H
(§5) The medium of the cells inoculated the day before into 96-well plates is changed for 90 μl of medium containing 0.1% FCS and 10 μl are distributed with FX 96 from the 96-well DL plates to the cell plates.
(§6) The cell plates thus treated are placed for 18 hours in an incubator at 37° C. (ambient O2, 6% CO2).
(§7) The supernatants (80 μl) of the Hep3B cells in the 96-well plates treated with the potential HIF activators are recovered with a multichannel pipette for simultaneous assay of the VEGF and the EPO by ELISA according to the supplier's instructions (Kit EPO Mesoscale (ref K15122B-2)).
(§8) The activating activity of a compound with respect to HIF is given by the concentration that produces 50% of the maximum response of this same compound in Table IV.
(An ELISA detects its analyte on a solid surface through an enzyme-linked reagent.)

The next series has as its system EPO. Put plainly: Measurement of the secretion of EPO by Hep3B hepatocytes (ELISA). Type of series: cell-based. The note with it: Homo sapiens, supernatant of Hep3B cells, 18 hours under normoxia, concentration that produces 50% of the maximum response of this same compound. On the procedure: as §1, §2, §3, §4, §5, §6, §7, §8

Molecules are shown by their SMILES.

One may read the melting point as the temperature, or range, at which the solid turns liquid. The EC50 is the midpoint of the concentration-response curve. With `O=c1c2c([nH]n1-c1ccccn1)CSC2` [Compound 1, 2-pyridin-2-yl-1,2,4,6-tetrahydro-3H-thieno[3,4-c]pyrazol-3-one], the melting point stood at 152 °C. This compound also yielded an EC50 with HIF1-alpha of 8800 nM. In the series with VEGF, this compound had an EC50 of 3000 nM. Also, the midpoint of the response with EPO, the EC50, lay at 2900 nM.
With `CCN(c1ccccc1)S(=O)(=O)c1ccc(-n2[nH]c3c(c2=O)CSC3)nc1` [Compound 9, N-ethyl-6-(3-oxo-4,6-dihydro-1H-thieno[3,4-c]pyrazol-2(3H)-yl)-N-phenylpyridine-3-sulfonamide], the melting point amounted to 208 °C. The EC50 in the series on HIF1-alpha came to 1400 nM. In addition, the EC50 in the series on VEGF amounted to 660 nM. The compound further gave an EC50 in the series with EPO of 700 nM.
Taken in the same sequence, the figures for `CCN(c1ccccc1)S(=O)(=O)c1ccc(-n2[nH]c3c(c2=O)CSCC3)nc1` [Compound 13, N-ethyl-6-(3-oxo-1,4,6,7-tetrahydrothiopyrano[4,3-c]pyrazol-2(3H)-yl)-N-phenylpyridine-3-sulfonamide] were 176 °C, 5200 nM, 1000 nM and 900 nM.
Regarding `O=c1c2c([nH]n1-c1ccc(S(=O)(=O)N3CCCC3)cn1)CSC2` [Compound 15, 2-[5-(pyrrolidin-1-ylsulfonyl)pyridin-2-yl]-1,2,4,6-tetrahydro-3H-thieno[3,4-c]pyrazol-3-one], the melting point is 152 °C. In the series with HIF1-alpha, a half-maximal response (EC50) required 16000 nM. In addition, the EC50 with VEGF is 3000 nM. The same compound displayed an EC50 with EPO of 2800 nM.
`O=c1c2c([nH]n1-c1ccc(S(=O)(=O)NC3CC3)cn1)CSC2` [Compound 16, N-cyclopropyl-6-(3-oxo-4,6-dihydro-1H-thieno[3,4-c]pyrazol-2(3H)-yl)pyridine-3-sulfonamide]: the melting point came out at 262 °C. In addition, it took 8600 nM to reach a half-maximal effect in the series on HIF1-alpha (EC50). The compound further came in with an EC50 with VEGF of 3000 nM. In addition, the EC50 in the series on EPO was 3500 nM.
Taken in the same sequence, the figures for `CC(C)NS(=O)(=O)c1ccc(-n2[nH]c3c(c2=O)CSC3)nc1` [Compound 17, 6-(3-oxo-4,6-dihydro-1H-thieno[3,4-c]pyrazol-2(3H)-yl)-N-(propan-2-yl)pyridine-3-sulfonamide] were 258 °C, 10000 nM, 2900 nM and 2900 nM.
`CC(C)(C)NS(=O)(=O)c1ccc(-n2[nH]c3c(c2=O)CSC3)nc1` [Compound 18, N-tert-butyl-6-(3-oxo-4,6-dihydro-1H-thieno[3,4-c]pyrazol-2(3H)-yl)pyridine-3-sulfonamide] yielded a melting point of 257 °C. Moreover, the response in the series on HIF1-alpha was half-maximal at 4400 nM (EC50). In addition, in the series with VEGF, the response was half-maximal at 400 nM (EC50). Besides, in the series with EPO, the midpoint of the response, the EC50, lay at 500 nM.
With `O=c1c2c([nH]n1-c1ccc(S(=O)(=O)NCc3ccco3)cn1)CSC2` [Compound 19, N-(furan-2-ylmethyl)-6-(3-oxo-4,6-dihydro-1H-thieno[3,4-c]pyrazol-2(3H)-yl)pyridine-3-sulfonamide], the melting point came out at 238 °C. Also, the concentration for a half-maximal effect (EC50) in the series on HIF1-alpha stood at 5500 nM. Further, in the series with VEGF, a half-maximal effect (EC50) was put at 2400 nM. In the series with EPO, this compound gave an EC50 of 2400 nM.
With `O=c1c2c([nH]n1-c1ccc(S(=O)(=O)NC3CCCC3)cn1)CSC2` [Compound 20, N-cyclopentyl-6-(3-oxo-4,6-dihydro-1H-thieno[3,4-c]pyrazol-2(3H)-yl)pyridine-3-sulfonamide], the melting point was greater than 260 °C. This compound also registered an EC50 with HIF1-alpha of 3400 nM. The compound also had an EC50 with VEGF of 900 nM. Also, in the series on EPO, the midpoint of the response, the EC50, lay at 1000 nM.
For `CN(c1ccccn1)S(=O)(=O)c1ccc(-n2[nH]c3c(c2=O)CSC3)nc1` [Compound 21, N-methyl-6-(3-oxo-4,6-dihydro-1H-thieno[3,4-c]pyrazol-2(3H)-yl)-N-pyridin-2-ylpyridine-3-sulfonamide], in that order: 226 °C, 8700 nM, 2400 nM and 1400 nM.
As for `CC(C)(C)OC(=O)c1ccc(-n2[nH]c3c(c2=O)CSC3)nc1` [Compound 30, tert-butyl 6-(3-oxo-4,6-dihydro-1H-thieno[3,4-c]pyrazol-2(3H)-yl)pyridine-3-carboxylate], the EC50 with HIF1-alpha came to 650 nM; with VEGF it was 1800 nM; in the series with EPO, 1500 nM.
As for `CCN(C(C)(C)C)S(=O)(=O)c1ccc(-n2nc3c(c2O)CSC3)nc1` [Compound 32, sodium 2-{5-[tert-butyl(ethyl)sulfamoyl]pyridin-2-yl}-2,6-dihydro-4H-thieno[3,4-c]pyrazol-3-olate], the EC50 is 1300 nM in the series on HIF1-alpha, 3200 nM with VEGF and 2600 nM in the series with EPO.
With `CCN(c1ccccc1)S(=O)(=O)c1ccc(-n2nc3c(c2O)N(Cc2ccccc2)C(=O)CC3)nc1` [Compound 35, sodium 4-benzyl-2-{5-[ethyl(phenyl)sulfamoyl]pyridin-2-yl}-5-oxo-4,5,6,7-tetrahydro-2H-pyrazolo[4,3-b]pyridin-3-olate], the EC50 turned out to be 2500 nM in the series on HIF1-alpha, 1100 nM in the series with VEGF and 1700 nM with EPO.
Take `CN(C(C)(C)C)S(=O)(=O)c1ccc(-n2nc3c(c2O)CSC3)nc1` [Compound 36, sodium 2-{5-[tert-butyl(methyl)sulfamoyl]pyridin-2-yl}-2,6-dihydro-4H-thieno[3,4-c]pyrazol-3-olate]: the EC50 came to 1200 nM in the series on HIF1-alpha, 2000 nM in the series on VEGF and 1600 nM in the series with EPO.
As for `COc1ccnc(-n2[nH]c3c(c2=O)CSC3)c1` [Compound 59, 2-(4-methoxypyridin-2-yl)-1,2,4,6-tetrahydro-3H-thieno[3,4-c]pyrazol-3-one], the melting point came to 254 °C. The same compound had an EC50 in the series with VEGF of 3100 nM. Moreover, the EC50 in the series on EPO amounted to 2600 nM.
Take `CCc1ccnc(-n2[nH]c3c(c2=O)CSC3)c1` [Compound 61, sodium 2-(4-ethylpyridin-2-yl)-2,6-dihydro-4H-thieno[3,4-c]pyrazol-3-olate]: the concentration for a half-maximal effect (EC50) turned out to be 1900 nM in the series on HIF1-alpha, 2800 nM with VEGF and 2200 nM in the series on EPO.

Source of the values: patent publication US8697731B2, “Derivatives of 2-pyridin-2-yl-pyrazol-3(2H)-one, preparation and therapeutic use thereof” (Sanofi, priority 2008, dated 2014).
